Test results: patent US11345666B2, “Phenyl and pyridinyl substituted imidazoles as modulators of RORγT” (Janssen Pharmaceutica NV, priority 2018, dated 2022)
pIC50, pKd: −log10 of the molar value.

How the values were obtained:
[1] = biological target: human RORγt ligand binding domain (RORγt LBD) (Homo sapiens (Human), UniProt P51449); assay: RORγt ThermoFluor assay
Procedure, shortened: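 Thermal shift of His-tagged human RORγt LBD (0.065 mg/mL) with 60 μM 1,8-ANS in 100 mM Hepes pH 7.0, 10 mM NaCl, 2.5 mM GSH, 0.002% Tween-20, heated at 1° C./min. Compounds in 1:2 series from a 10 mM DMSO stock; KD estimated from ΔTm using protein unfolding thermodynamics.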

full-length human RORγt = full-length human RORγt (Homo sapiens (Human), UniProt P51449); assay: RORγt (full-length human) reporter assay, conditions A or B; type: cell-based; conditions: for inhibition at 0.67 µM: 0.67 μM compound concentration (****); for pIC50: HEK293T cells, read-out: RORγt (FL) Reporter Assay A or B, IC50; for inhibition at 2 µM: 2 μM compound concentration (**); for inhibition at 6 µM: read-out: RORγt (FL) Reporter Assay A or B, % inhibition @ 6 μM, 6 μM compound concentration; for inhibition at 0.22 µM: 0.22 μM compound concentration (******)
Sequence of full-length human RORγt (P51449 other isoform, or with tags, fused parts or gaps): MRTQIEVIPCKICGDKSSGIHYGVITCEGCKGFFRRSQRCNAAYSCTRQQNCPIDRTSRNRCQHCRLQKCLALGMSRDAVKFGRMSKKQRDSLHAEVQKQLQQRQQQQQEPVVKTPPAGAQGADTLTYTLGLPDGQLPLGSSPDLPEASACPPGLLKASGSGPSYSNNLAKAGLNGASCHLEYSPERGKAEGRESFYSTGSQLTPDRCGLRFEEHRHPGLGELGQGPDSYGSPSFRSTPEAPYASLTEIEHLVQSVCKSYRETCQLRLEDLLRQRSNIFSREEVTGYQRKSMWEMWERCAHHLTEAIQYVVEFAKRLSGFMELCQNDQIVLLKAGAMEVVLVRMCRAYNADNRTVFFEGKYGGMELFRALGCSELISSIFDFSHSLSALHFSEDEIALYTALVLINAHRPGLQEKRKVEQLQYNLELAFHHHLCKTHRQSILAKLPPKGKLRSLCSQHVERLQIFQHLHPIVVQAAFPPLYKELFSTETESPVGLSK
Procedure, shortened: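 HEK293T cells transiently co-transfected (PEI) with GAL4-DBD–RORγt, GAL4-firefly luciferase and CMV-Renilla reporters; condition A 35,000 cells/well, 170.5 ng DNA/well; condition B 8750 cells/well, 42.6 ng DNA/well.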

[2] = read-out: RORγt (FL) Reporter Assay A or B, % inhibition

Sequence of human RORγt ligand binding domain (RORγt LBD) (P51449 other isoform, or with tags, fused parts or gaps): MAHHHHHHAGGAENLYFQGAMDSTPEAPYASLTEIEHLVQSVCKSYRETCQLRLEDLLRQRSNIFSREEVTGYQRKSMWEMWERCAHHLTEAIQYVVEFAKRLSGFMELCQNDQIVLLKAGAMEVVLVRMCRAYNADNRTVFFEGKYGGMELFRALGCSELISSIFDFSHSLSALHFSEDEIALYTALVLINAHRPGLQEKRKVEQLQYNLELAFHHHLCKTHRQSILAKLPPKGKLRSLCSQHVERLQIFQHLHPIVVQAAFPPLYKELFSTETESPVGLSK

SMILES | pKd [1] | inhibition at 0.67 µM (full-length human RORγt; [2]) | pIC50 (full-length human RORγt) | inhibition at 2 µM (full-length human RORγt; [2]) | inhibition at 6 µM (full-length human RORγt) | inhibition at 0.22 µM (full-length human RORγt; [2]) | inhibition at 0.07 µM (full-length human RORγt; 0.07 μM compound concentration (*******), read-out: RORγt (FL) Reporter Assay A or B, % inhibition)
CCc1nc(C(=O)NC[C@H]2CC[C@H](S(C)(=O)=O)CC2)c(Cl)n1-c1ccc(CC(C)C)cc1OC [Example 89, 5-Chloro-2-ethyl-1-(4-isobutyl-2-methoxyphenyl)-N-(((1r,4r)-4-(methylsulfonyl)cyclohexyl)methyl)-1H-imidazole-4-carboxamide] | 9.70 | 66% | 7.80 | – | – | – | –
CCc1nc(C(=O)NC[C@]2(O)CC[C@@H](S(C)(=O)=O)CC2)c(Cl)n1-c1ccc(CC(C)C)cc1OC [Example 90, 5-Chloro-2-ethyl-N-(((1s,4s)-1-hydroxy-4-(methylsulfonyl)cyclohexyl)methyl)-1-(4-isobutyl-2-methoxyphenyl)-1H-imidazole-4-carboxamide] | 9.51 | – | 7.68 | 67% | – | – | –
CCc1nc(C(=O)NC[C@H]2CC[C@H](S(C)(=O)=O)CC2)c(C#N)n1-c1ccc(CCC(F)(F)F)cc1F [Example 93, 5-Cyano-2-ethyl-1-(2-fluoro-4-(3,3,3-trifluoropropyl)phenyl)-N-(((1r,4r)-4-(methylsulfonyl)cyclohexyl)methyl)-1H-imidazole-4-carboxamide] | 7.03 | – | 6.48 | 65% | – | – | –
CCc1nc(C(=O)NC[C@H]2CC[C@H](S(C)(=O)=O)CC2)c(C(N)=O)n1-c1ccc(CCC(F)(F)F)cc1F [Example 94, 2-Ethyl-1-(2-fluoro-4-(3,3,3-trifluoropropyl)phenyl)-N^4-(((1r,4r)-4-(methylsulfonyl)cyclohexyl)methyl)-1H-imidazole-4,5-dicarboxamide] | 6.60 | – | 6.31 | 47% | – | – | –
CCc1nc(C(=O)NC[C@]2(O)CC[C@@H](S(C)(=O)=O)CC2)c(C#N)n1-c1ccc(CCC(F)(F)F)cc1F [Example 95, 5-Cyano-2-ethyl-1-(2-fluoro-4-(3,3,3-trifluoropropyl)phenyl)-N-(((1s,4s)-1-hydroxy-4-(methylsulfonyl)cyclohexyl)methyl)-1H-imidazole-4-carboxamide] | 6.54 | – | 5.92 | – | 72% | – | –
CCc1nc(C(=O)NC[C@]2(O)CC[C@@H](S(C)(=O)=O)CC2)c(C(N)=O)n1-c1ccc(CCC(F)(F)F)cc1F [Example 96, 2-Ethyl-1-(2-fluoro-4-(3,3,3-trifluoropropyl)phenyl)-N-(((1s,4s)-1-hydroxy-4-(methylsulfonyl)cyclohexyl)methyl)-1H-imidazole-4,5-dicarboxamide] | 6.35 | – | 5.85 | – | 75% | – | –
CCc1nc(C(=O)NC[C@H]2CC[C@H](S(C)(=O)=O)CC2)c(Cl)n1-c1ccc(CCCC(F)(F)F)cc1F [Example 97, 5-Chloro-2-ethyl-1-(2-fluoro-4-(4,4,4-trifluorobutyl)phenyl)-N-(((1r,4r)-4-(methylsulfonyl)cyclohexyl)methyl)-1H-imidazole-4-carboxamide] | 7.85 | 53% | 7.66 | – | – | – | –
CCc1nc(C(=O)NC[C@]2(O)CC[C@@H](S(C)(=O)=O)CC2)c(Cl)n1-c1ccc(CCCC(F)(F)F)cc1F [Example 98, 5-Chloro-2-ethyl-1-(2-fluoro-4-(4,4,4-trifluorobutyl)phenyl)-N-(((1s,4s)-1-hydroxy-4-(methylsulfonyl)cyclohexyl)methyl)-1H-imidazole-4-carboxamide] | 7.48 | – | 7.48 | 43% | – | – | –
CCc1nc(C(=O)NC[C@H]2CC[C@H](S(C)(=O)=O)CC2)c(Cl)n1-c1ccc(CC(C(F)(F)F)C(F)(F)F)cc1F [Example 99, 5-Chloro-2-ethyl-1-(2-fluoro-4-(3,3,3-trifluoro-2-(trifluoromethyl)propyl)phenyl)-N-(((1r,4r)-4-(methylsulfonyl)cyclohexyl)methyl)-1H-imidazole-4-carboxamide] | 8.40 | – | 7.80 | – | – | 99% | –
CCc1nc(C(=O)NC[C@H]2CC[C@H](S(C)(=O)=O)CC2)c(Cl)n1-c1ccc(CC(C)(C)C(F)(F)F)cc1F [Example 101, 5-Chloro-2-ethyl-1-(2-fluoro-4-(3,3,3-trifluoro-2,2-dimethylpropyl)phenyl)-N-(((1r,4r)-4-(methylsulfonyl)cyclohexyl)methyl)-1H-imidazole-4-carboxamide] | 8.40 | – | 7.74 | – | – | 65% | –
CCc1nc(C(=O)NC[C@]2(O)CC[C@@H](S(C)(=O)=O)CC2)c(Cl)n1-c1ccc(CC(C)(C)C(F)(F)F)cc1F [Example 102, 5-Chloro-2-ethyl-1-(2-fluoro-4-(3,3,3-trifluoro-2,2-dimethylpropyl)phenyl)-N-(((1s,4s)-1-hydroxy-4-(methylsulfonyl)cyclohexyl)methyl)-1H-imidazole-4-carboxamide] | 8.10 | 74% | 7.44 | – | – | – | –
CCc1nc(C(=O)NC[C@]2(O)CC[C@@H](S(C)(=O)=O)CC2)c(C)n1-c1ccc(CC(C(F)(F)F)C(F)(F)F)c(F)c1 [Example 106, 2-Ethyl-1-(3-fluoro-4-(3,3,3-trifluoro-2-(trifluoromethyl)propyl)phenyl)-N-(((1s,4s)-1-hydroxy-4-(methylsulfonyl)cyclohexyl)methyl)-5-methyl-1H-imidazole-4-carboxamide] | 7.26 | – | 6.77 | – | – | 40% | –
CCc1nc(C(=O)NC[C@]2(O)CC[C@@H](S(C)(=O)=O)CC2)c(Cl)n1-c1c(F)cc(CC(O)(C(F)(F)F)C(F)(F)F)cc1F [Example 108, 5-Chloro-1-(2,6-difluoro-4-(3,3,3-trifluoro-2-hydroxy-2-(trifluoromethyl)propyl)phenyl)-2-ethyl-N-(((1s,4s)-1-hydroxy-4-(methylsulfonyl)cyclohexyl)methyl)-1H-imidazole-4-carboxamide] | 7.00 | – | 6.47 | – | 99% | – | –
CCc1nc(C(=O)NC[C@H]2CC[C@H](S(C)(=O)=O)CC2)c(C)n1-c1ccc(CC(C(F)(F)F)C(F)(F)F)cc1F [Example 110, 2-Ethyl-1-(2-fluoro-4-(3,3,3-trifluoro-2-(trifluoromethyl)propyl)phenyl)-5-methyl-N-(((r,4r)-4-(methylsulfonyl)cyclohexyl)methyl)-1H-imidazole-4-carboxamide] | 8.48 | – | 8.74 | – | – | – | 90%
CCc1nc(C(=O)NC[C@]2(O)CC[C@@H](S(C)(=O)=O)CC2)c(C(N)=O)n1-c1ccc(CC(C)(C)C(F)(F)F)cc1OC(F)(F)F [Example 112, 2-Ethyl-N^4-(((1s,4s)-1-hydroxy-4-(methylsulfonyl)cyclohexyl)methyl)-1-(4-(3,3,3-trifluoro-2,2-dimethylpropyl)-2-(trifluoromethoxy)phenyl)-1H-imidazole-4,5-dicarboxamide] | 8.72 | – | 7.77 | 89% | – | – | –
CCc1nc(C(=O)NC[C@H]2CC[C@H](S(C)(=O)=O)CC2)c(C#N)n1-c1ccc(CC(C)(C)C(F)(F)F)cc1OC(F)(F)F [Example 113, 5-Cyano-2-ethyl-N-(((1r,4r)-4-(methylsulfonyl)cyclohexyl)methyl)-1-(4-(3,3,3-trifluoro-2,2-dimethylpropyl)-2-(trifluoromethoxy)phenyl)-1H-imidazole-4-carboxamide] | 8.08 | – | 7.36 | 88% | – | – | –
CCc1nc(C(=O)NC[C@]2(O)CC[C@@H](S(C)(=O)=O)CC2)c(C#N)n1-c1ccc(CCC(F)(F)F)cc1OC(F)(F)F [Example 114, 5-Cyano-2-ethyl-N-(((1s,4s)-1-hydroxy-4-(methylsulfonyl)cyclohexyl)methyl)-1-(2-(trifluoromethoxy)-4-(3,3,3-trifluoropropyl)phenyl)-1H-imidazole-4-carboxamide] | 6.96 | – | 6.18 | – | 66% | – | –
CCc1nc(C(=O)NC[C@H]2CC[C@H](S(C)(=O)=O)CC2)c(C#N)n1-c1ccc(CCC(F)(F)F)cc1OC(F)(F)F [Example 115, 5-Cyano-2-ethyl-N-(((1r,4r)-4-(methylsulfonyl)cyclohexyl)methyl)-1-(2-(trifluoromethoxy)-4-(3,3,3-trifluoropropyl)phenyl)-1H-imidazole-4-carboxamide] | 7.00 | – | 6.72 | – | 74% | – | –
CCc1nc(C(=O)NC[C@H]2CC[C@H](S(C)(=O)=O)CC2)cn1-c1cnc(CCC(F)(F)F)cc1OC [Example 116, 2-Ethyl-1-(4-methoxy-6-(3,3,3-trifluoropropyl)pyridin-3-yl)-N-(((1r,4r)-4-(methylsulfonyl)cyclohexyl)methyl)-1H-imidazole-4-carboxamide] | 5.30 | – | 5.52 | – | 30% | – | –
CCc1nc(C(=O)NC[C@H]2CC[C@H](S(C)(=O)=O)CC2)c(C#N)n1-c1cnc(CCC(F)(F)F)cc1OC [Example 117, 5-Cyano-2-ethyl-1-(4-methoxy-6-(3,3,3-trifluoropropyl)pyridin-3-yl)-N-(((1r,4r)-4-(methylsulfonyl)cyclohexyl)methyl)-1H-imidazole-4-carboxamide] | 6.25 | – | 5.82 | – | 88% | – | –
